{
  "source": "paper PMC11054459",
  "about": "(Molecules, 2024)",
  "molecules": {"B1": {"name": "D-glu-^LPPA-1 (peptide)", "peptide": "N(D‑glucose)YSKPTDRQYHF", "notes": "L-type peptide ^LPPA-1, L-amino-acid analogue of the PD-L1-targeting D-peptide ^DPPA-1; printed in three-letter code; source: synthetic peptide (Fmoc solid-phase synthesis, purified by reverse-phase HPLC)"}, "B2": {"name": "D-gal-^LPPA-1 (peptide)", "peptide": "N(D‑galactose)YSKPTDRQYHF", "notes": "as for B1"}},
  "key": {"[1]": {"test": "Body weight of MC38 tumor-bearing mice", "assay_type": "in vivo, mouse", "details": "1 and 3 mg/kg i.p. once daily for two weeks", "protocol": "Animal experiments were approved by the Zhengzhou University Ethics Committee. MC38 cells (1 × 10^6) were subcutaneously inoculated into C57BL/N mice. The MC38 tumor-bearing mice were randomly allocated to three groupsn (n = 5 per group): a control group (NS, normal saline containing 1% DMSO); a D-gal-^LPPA-1 peptide group (1 mg/kg); and a D-gal-^LPPA-1 peptide group (3 mg/kg). Daily intraperitoneal injections of the peptide were initiated when the tumor volume reached 50–90 mm^3. The tumor dimensions, including length, width, and height, were measured, and tumor volume was calculated using the following formula:V = 1/2 × A (length) × B (width) × C (height)."}, "mouse PD-L1 (mPD-L1)": {"target": "mouse PD-L1 (mPD-L1) (Mus musculus, UniProt Q9EP73)", "sequence (Q9EP73 19-290)": "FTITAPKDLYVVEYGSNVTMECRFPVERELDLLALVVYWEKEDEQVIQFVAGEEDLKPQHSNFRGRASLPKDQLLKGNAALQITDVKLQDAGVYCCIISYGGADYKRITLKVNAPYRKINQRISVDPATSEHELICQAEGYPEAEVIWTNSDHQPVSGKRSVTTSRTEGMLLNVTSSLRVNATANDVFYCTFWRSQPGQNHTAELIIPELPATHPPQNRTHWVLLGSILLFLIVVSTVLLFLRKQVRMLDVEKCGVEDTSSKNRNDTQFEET", "test": "MST binding assay, mPD-L1", "details": "microscale thermophoresis (MST); mPD-L1-His 800 nM, RED-NHS dye, PBST; peptide 400 μM to 0.012 μM; triplicate, mean ± SEM; read-out: dissociation constant (KD), mPD-L1", "protocol": "The concentrations of hPD-L1-His and mPD-L1-His proteins were adjusted to 200 nM and 800 nM, respectively, utilizing PBST as the diluent. Simultaneously, the concentration of RED-NHS676 dye was diluted to 100 nM in PBST. Subsequently, protein and dye were subjected to co-incubation at a volumetric ratio of 1:1 for a duration of 30 min, thereby facilitating the generation of labeled proteins. To establish peptide gradients, a progressive dilution was initiated from an initial concentration of 400 μM, eventually reaching 0.012 μM. Following this preparation, a homogenous amalgamation comprising 5 μL of labeled protein and 5 μL of small molecule diluent was extracted for further experimentation. Subsequently, the samples were transferred to standard capillary tubes and analyzed by an MST instrument (Nano Temper, Monolith NT.115, München, Germany)."}, "[2]": {"tested_on": "heart, liver, spleen, lung, kidney of MC38 tumor-bearing mice", "test": "H&E staining of major organs", "assay_type": "in vivo, mouse", "details": "1 and 3 mg/kg i.p., vs. normal saline control", "protocol": "Tumor tissue and heart, liver, spleen, lung, and kidney tissues were isolated from MC38 tumor-bearing mice and fixed in 4.0% paraformaldehyde. The samples were subsequently embedded in paraffin and subjected to hematoxylin and eosin staining. The results were analyzed using ImageJ1 software (NIH, Bethesda, MD, USA)."}, "[3]": {"target": "hPD-1/hPD-L1 interaction (CHO-K1-hPD-1 cells, hPD-L1 protein) (Homo sapiens, UniProt Q9NZQ7)", "sequence (Q9NZQ7 19-238 limits assumed)": "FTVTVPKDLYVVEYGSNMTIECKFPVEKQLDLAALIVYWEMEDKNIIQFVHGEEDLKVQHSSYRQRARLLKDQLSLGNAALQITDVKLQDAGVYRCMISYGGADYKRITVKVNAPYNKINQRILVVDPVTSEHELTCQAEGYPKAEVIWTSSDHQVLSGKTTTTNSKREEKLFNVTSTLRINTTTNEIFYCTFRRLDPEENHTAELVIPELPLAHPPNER", "test": "Peptide blocking assay (flow cytometry)", "assay_type": "cell-based", "details": "CHO-K1-hPD-1 cells 3 × 10^5 per sample, 50 ng hPD-L1, peptide + protein 30 min, + cells 30 min, on ice, 200 μM to 1.6 μM, means ± SEMs from three independent biological triplicates, read-out: IC50, blocking of PD-1/PD-L1 interaction", "protocol": "The interaction between PD-1 and PD-L1 plays a pivotal role in suppressing T-cell function, and disrupting this interaction has emerged as a viable therapeutic strategy in cancer treatment. Thus, we investigated the inhibitory potential of D-glu-^LPPA-1 and D-gal-^LPPA-1 on the PD-1/PD-L1 interaction. To conduct the experiment, CHO-K1-hPD-1 cells were harvested at a density of 3 × 10^5 cells per sample. Peptides were solubilized to a concentration of 200 μM and serially diluted before coincubation with 50 ng of the hPD-L1 protein for 30 min. The protein–peptide mixture was introduced into CHO-K1-hPD-1 cells, which were then coincubated for an additional 30 min. The anti-Fc PE antibody was then added and incubated for 30 min. Flow cytometry was used to evaluate the efficacy of the peptides in blocking the hPD-1/hPD-L1 interaction.\nFor subsequent multi-concentration blocking assays, peptides were prepared in concentration gradients spanning 200 μM, 100 μM, 50 μM, 25 μM, 12.5 μM, and 6.25 μM. Peptides at different concentrations were incubated with hPD-L1 (mPD-L1) protein (50 ng) on ice for 30 min. Subsequently, the mixture was added to CHO-K1-hPD-1 or CHO-K1-mPD-1 cells and coincubated on ice for 30 min. […] The ability of the peptide to block the PD-1/PD-L1 interaction was assessed using flow cytometry."}, "hPD-L1-Fc": {"target": "T1, hPD-L1-Fc (human, UniProt Q9NZQ7 19-238)", "T1 construct": "human PD-L1 (hPD-L1), recombinant protein fused to Fc; also called hPD-L1 protein", "T1 sequence (Q9NZQ7 19-238)": "as the sequence (Q9NZQ7 19-238 limits assumed) above", "test": "flow cytometry on cells; blocking assay: peptide in serial dilution from 200 μM pre-incubated with 50 ng hPD-L1-Fc on ice for 30 min, mixture added to CHO-K1-hPD-1 cells (3 x 10^5 per sample) for 30 min, detected with anti-Fc PE antibody", "details": "both partners purified"}, "hPD-L1-His": {"target": "hPD-L1-His (human, UniProt Q9NZQ7 19-290, labelled with RED-NHS676 dye)", "sequence (Q9NZQ7 19-290)": "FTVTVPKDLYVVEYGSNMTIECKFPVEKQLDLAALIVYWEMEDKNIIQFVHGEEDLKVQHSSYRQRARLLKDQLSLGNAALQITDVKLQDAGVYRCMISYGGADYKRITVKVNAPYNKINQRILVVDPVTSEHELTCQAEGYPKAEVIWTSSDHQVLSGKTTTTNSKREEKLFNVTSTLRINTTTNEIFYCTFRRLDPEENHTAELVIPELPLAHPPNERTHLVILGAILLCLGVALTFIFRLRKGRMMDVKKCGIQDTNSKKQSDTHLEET", "test": "MST; His-tagged PD-L1 (hPD-L1 200 nM, mPD-L1 800 nM) labelled 1:1 with 100 nM RED-NHS676 dye in PBST for 30 min; peptide diluted from 400 μM to 0.012 μM; standard capillaries, Monolith NT.115", "details": "both partners purified"}, "mPD-L1-His": {"target": "mPD-L1-His (mouse, UniProt Q9EP73 19-290, labelled with RED-NHS676 dye)", "sequence (Q9EP73 19-290)": "as the sequence (Q9EP73 19-290) above", "test": "MST; His-tagged PD-L1 (hPD-L1 200 nM, mPD-L1 800 nM) labelled 1:1 with 100 nM RED-NHS676 dye in PBST for 30 min; peptide diluted from 400 μM to 0.012 μM; standard capillaries, Monolith NT.115", "details": "both partners purified"}},
  "note": "Residues, ends and D or L forms follow the SMILES beside them. No end group written: not given here. *: point of attachment. X1 = NC(=O)C[C@H](N=C[C@H](O)[C@@H](O)[C@@H](O)[C@H](O)CO)C(=O)*; X2 = NC(=O)C[C@H](N=C[C@H](O)[C@@H](O)[C@H](O)[C@H](O)CO)C(=O)*",
  "data": [
    {"molecule": "C[C@@H](O)[C@H](NC(=O)[C@@H]1CCCN1C(=O)[C@H](CCCCN)NC(=O)[C@H](CO)NC(=O)[C@H](Cc1ccc(O)cc1)NC(=O)[C@H](CC(N)=O)N=C[C@H](O)[C@@H](O)[C@@H](O)[C@H](O)CO)C(=O)N[C@@H](CC(=O)O)C(=O)N[C@@H](CCCNC(=N)N)C(=O)N[C@@H](CCC(N)=O)C(=O)N[C@@H](Cc1ccc(O)cc1)C(=O)N[C@@H](Cc1c[nH]cn1)C(=O)N[C@@H](Cc1ccccc1)C(=O)O", "note": "[D-gal-^LPPA-1] (X1-YSKPTDRQYHF-OH)", "values": [
      {"measurement": "body weight", "setting": "[1]", "result": "no significant changes in body weight"},
      {"measurement": "Kd", "setting": "mouse PD-L1 (mPD-L1)", "result": "0.015 ± 0.006", "unit": "µM"},
      {"measurement": "organ toxicity (H&E staining)", "setting": "[2]", "result": "no apparent toxicity observed"}
    ]},
    {"molecule": "C[C@@H](O)[C@H](NC(=O)[C@@H]1CCCN1C(=O)[C@H](CCCCN)NC(=O)[C@H](CO)NC(=O)[C@H](Cc1ccc(O)cc1)NC(=O)[C@H](CC(N)=O)N=C[C@H](O)[C@@H](O)[C@H](O)[C@H](O)CO)C(=O)N[C@@H](CC(=O)O)C(=O)N[C@@H](CCCNC(=N)N)C(=O)N[C@@H](CCC(N)=O)C(=O)N[C@@H](Cc1ccc(O)cc1)C(=O)N[C@@H](Cc1c[nH]cn1)C(=O)N[C@@H](Cc1ccccc1)C(=O)O", "note": "[D-glu-^LPPA-1] (X2-YSKPTDRQYHF-OH)", "values": [
      {"measurement": "IC50", "setting": "[3]", "result": "75.5 ± 20.3", "unit": "µM"}
    ]},
    {"molecule": "B1", "values": [
      {"measurement": "IC50", "setting": "hPD-L1-Fc", "result": 75, "unit": "µM"}
    ]},
    {"molecule": "B2", "values": [
      {"measurement": "IC50", "setting": "hPD-L1-Fc", "result": 101, "unit": "µM"},
      {"measurement": "Kd", "setting": "hPD-L1-His", "result": 0.047, "unit": "µM"},
      {"measurement": "Kd", "setting": "mPD-L1-His", "result": 0.0149, "unit": "µM"}
    ]}
  ]
}
